This assay has as its system CT26/HER-2 carcinoma cell line. Put plainly: CT26/HER-2 tumor challenge in immunized Balb/c mice. The format is in vivo. Conditions: for tumor growth inhibition: CT26/HER-2, day 16. From the text:
(PMID: 29337305). […] Balb/c mice 6-8 weeks old, were immunized with MVF-peptide immunogens emulsified in ISA 720 with nor-MDP three times and three weeks apart. Mice were immunized with MVF-PD-L1 vaccine constructs [PD-L1(36-53), PD-L1(50-67), PD-L1(95-112), PD-L1(130-147)] prior to tumor challenge. Blood was collected weekly and sera tested for antibody titers by ELISA. Two weeks after the third immunization (3Y), the mice were engrafted with CT26 WT tumor cells 10^5 per mouse Control mice were treated twice weekly with PBS as negative control and twice weekly with anti-mPD-L1 mAb (10F.9G2) as positive control starting 2 days after tumor challenge. Tumor growths were observed twice weekly and measured by calipers.
Vaccines were dissolved in water and emulsified in Montanide ISA 720 (1:1) and 50 μg nor-MDP (N-acetylglucosamine-3yl-acetyl-1-alanyl-d-isoglutamine). Female Balb/c mice (Charles River Laboratories) at the age of 5 to 6 week were immunized three times at 3-week intervals with 100 μg of each peptide vaccine, and 2 weeks after the third immunization, the mice were challenged s.c. with CT-26-HER2 neu tumor cells (100,000 per mouse).
Mice treated twice a week with anti-mouse PD-L1 MAb 10F.9G2 (Bio X Cell, West Lebanon, NH) 200 ug/dose was used as a positive control or purified mouse IgG from mouse sera (Sigma-Aldrich, St. Louis, Mo) as a negative control. Tumor growth was monitored for up to 21 days after challenge. During immunization, blood was drawn biweekly and used in ELISA to monitor Ab titers. The mice were euthanized at the end of treatment and tumors extracted and weighed samples of the tumors were saved for further study and for histological examination.
Two weeks after the third immunization (3Y), the mice were inoculated subcutaneously (s.c) with CT26 carcinoma cells (1×10^5 cells per mouse) and tumor formation was monitored on a daily basis afterwards. Mice treated with PBS served as negative control, and twice weekly treated mice with 200 μg/dose injections of anti-mouse PD-L1 monoclonal antibody (mAb clone 10F.9G2) served as positive control. Tumor growth was monitored daily and measured by caliper. […] PD-L1 B-cell epitope vaccines treatment had similar and significant reduction in tumor growth at day 16 post challenge as compared to negative control treatment with PBS (FIG. 19). […] Tumor sizes at various times are also shown in FIG. 20 and one-way analysis of variance (one-way ANOVA) followed by the Tukey's multiple comparisons test were used to compare data in multiple groups or data between groups.
We also analyzed the different isotypes of antibodies being generated by vaccination.
6-8 weeks old BALB/c mice (Charles River, Wilmington, MA) were used as standard animal models. Mouse CT26 colon carcinoma cell line was purchased from American Type Culture Collection Cells and were regularly cultured in RPMI1640 medium containing 10% FBS. CT26/HER2 cells were kindly provided by M. Penichet. Vaccines were dissolved in sterile water and emulsified in Montanide ISA 720 (1:1). Female Balb/c mice (Charles River Laboratories) at the age of 6-8 weeks were immunized three times at 3-week intervals with 100 μg of each peptide vaccine, and 2 weeks after the third immunization, the mice were challenged with CT26 and/or CT26/HER-2 tumor cells, which were implanted subcutaneously (s.c) on the right flank (1×10^5 per mouse). 200 μg of rat α-mouse PD-L1 mAb 10F.9G2 (Bio X Cell, West Lebanon, NH) were administered intraperitoneally (i.p.), twice weekly following tumor inoculation in the control group. Mice were monitored and scored for the formation of palpable tumors on a daily basis and sacrificed if tumors became necrotic or exceeded the predetermined size of 2,000 mm^3. Tumor volumes were measured in cubic millimeters with calipers and calculated with the following formula: A×B^2×0.5, where A is the largest diameter, and B is the widest point perpendicular to length. […]

Where no end group is shown, it is not given here.

“KLLSLIKGVIVHRLEGVEGPSLVTSEHELTCQAEGYPKAE (KLLSLIKGVIVHRLEGVEGPSLVTSEHELTCQAEGYPKAE-NH2) [PD-L1(130)]”: the tumor growth inhibition result is reported as “strongest tumor growth inhibition”. In addition, where the note is “CT26/HER-2”, the levels of lesions result is listed as “lowest levels of lesions” and the “percentage of tumor growth inhibition compared to negative control” value is “Significant higher percentage of tumor growth inhibition”. For the same sequence, the “tumor inhibition versus PBS” value (CT26/HER-2, Balb/c) is “superior tumor growth inhibition”. For the same sequence, the survival rate result (CT26/HER-2, Kaplan-Meier method) was “highest survival rate”. The “50% mice survival time / survival rate” value (CT26 HER2, compared to the other PD-L1 epitopes) was “better survival rate”.
In the case of “KLLSLIKGVIVHRLEGVEGPSLYRCMISYGGADYKRITVK (KLLSLIKGVIVHRLEGVEGPSLYRCMISYGGADYKRITVK-NH2) [PD-L1(95)]”, the tumor growth inhibition result is given as “strongest tumor growth inhibition”.
Turning to “KLLSLIKGVIVHRLEGVEGPSLFVHGEEDLKVQHSSYRQR (KLLSLIKGVIVHRLEGVEGPSLFVHGEEDLKVQHSSYRQR-NH2) [PD-L1(50)]”, the tumor growth inhibition entry was “strongest tumor growth inhibition”.
On the same count and under the same terms, next, “KLLSLIKGVIVHRLEGVEGPSLLIVYWEMEDKNIIQFVHG (KLLSLIKGVIVHRLEGVEGPSLLIVYWEMEDKNIIQFVHG-NH2) [PD-L1(36)]”: “strongest tumor growth inhibition”.

For the origin of these results see patent US12589143B2, “Human anti-PD-L1 peptide vaccines and methods of their use” (priority 2019, dated 2026).
